# Measurements taken from PubChem BioAssay AID1259407 (Chemical Carcinogenesis Research Information System (CCRIS), 2018).
# Calls of active or inactive are those of the source. How the calls were made is not given here.
# System: CCRIS mutagenicity, Ames/micronucleus/aberration tests
# Experiment: CCRIS mutagenicity studies
# [1] = Test System: AMES SALMONELLA TYPHIMURIUM, Strain/Indicator: TA98, Metabolic Activation: NONE, Method: STANDARD PLATE
# [2] = Test System: AMES SALMONELLA TYPHIMURIUM, Strain/Indicator: TA100, Metabolic Activation: NONE, Method: STANDARD PLATE
# [3] = Test System: MOUSE LYMPHOMA, Strain/Indicator: L5178Y (TK+/TK-), Metabolic Activation: NONE, Method: SUSPENSION/PLATE
# [4] = Test System: AMES SALMONELLA TYPHIMURIUM, Strain/Indicator: TA98, Metabolic Activation: NONE, Method: PREINCUBATION
# [5] = Test System: AMES SALMONELLA TYPHIMURIUM, Strain/Indicator: TA100, Metabolic Activation: NONE, Method: PREINCUBATION
# [6] = Test System: AMES SALMONELLA TYPHIMURIUM, Strain/Indicator: TA1535, Metabolic Activation: NONE, Method: PREINCUBATION
# [7] = Test System: AMES SALMONELLA TYPHIMURIUM, Strain/Indicator: TA1537, Metabolic Activation: NONE, Method: PREINCUBATION
compound,measurement,setting,value
N#CC(C#N)=C(C#N)C#N,mutagenic call,"Test System: AMES SALMONELLA TYPHIMURIUM, Strain/Indicator: TA98, Metabolic Activation: HAMSTER, LIVER, S-9, AROCLOR 1254 (10%), Method: STANDARD PLATE",inactive; negative
same,mutagenic call,[1],inactive; negative
same,mutagenic call,"Test System: AMES SALMONELLA TYPHIMURIUM, Strain/Indicator: TA98, Metabolic Activation: RAT, LIVER, S-9, AROCLOR 1254 (10%), Method: STANDARD PLATE",inactive; negative
same,mutagenic call,"Test System: AMES SALMONELLA TYPHIMURIUM, Strain/Indicator: TA100, Metabolic Activation: HAMSTER, LIVER, S-9, AROCLOR 1254 (10%), Method: STANDARD PLATE",inactive; negative
same,mutagenic call,[2],inactive; negative
same,mutagenic call,"Test System: AMES SALMONELLA TYPHIMURIUM, Strain/Indicator: TA100, Metabolic Activation: RAT, LIVER, S-9, AROCLOR 1254 (10%), Method: STANDARD PLATE",inactive; negative
same,mutagenic call,"Test System: AMES SALMONELLA TYPHIMURIUM, Strain/Indicator: TA1535, Metabolic Activation: HAMSTER, LIVER, S-9, AROCLOR 1254 (10%), Method: STANDARD PLATE",inactive; negative
same,mutagenic call,"Test System: AMES SALMONELLA TYPHIMURIUM, Strain/Indicator: TA1535, Metabolic Activation: NONE, Method: STANDARD PLATE",inactive; negative
same,mutagenic call,"Test System: AMES SALMONELLA TYPHIMURIUM, Strain/Indicator: TA1535, Metabolic Activation: RAT, LIVER, S-9, AROCLOR 1254 (10%), Method: STANDARD PLATE",inactive; negative
same,mutagenic call,"Test System: AMES SALMONELLA TYPHIMURIUM, Strain/Indicator: TA1537, Metabolic Activation: HAMSTER, LIVER, S-9, AROCLOR 1254 (10%), Method: STANDARD PLATE",inactive; negative
same,mutagenic call,"Test System: AMES SALMONELLA TYPHIMURIUM, Strain/Indicator: TA1537, Metabolic Activation: NONE, Method: STANDARD PLATE",inactive; negative
same,mutagenic call,"Test System: AMES SALMONELLA TYPHIMURIUM, Strain/Indicator: TA1537, Metabolic Activation: RAT, LIVER, S-9, AROCLOR 1254 (10%), Method: STANDARD PLATE",inactive; negative
same,mutagenic call,"Test System: AMES SALMONELLA TYPHIMURIUM, Strain/Indicator: TA1538, Metabolic Activation: HAMSTER, LIVER, S-9, AROCLOR 1254 (10%), Method: STANDARD PLATE",inactive; negative
same,mutagenic call,"Test System: AMES SALMONELLA TYPHIMURIUM, Strain/Indicator: TA1538, Metabolic Activation: NONE, Method: STANDARD PLATE",inactive; negative
same,mutagenic call,"Test System: AMES SALMONELLA TYPHIMURIUM, Strain/Indicator: TA1538, Metabolic Activation: RAT, LIVER, S-9, AROCLOR 1254 (10%), Method: STANDARD PLATE",inactive; negative
same,mutagenic call,[3],inactive; negative. reevaluation of results: inconclusive
same,mutagenic call,"Test System: MOUSE LYMPHOMA, Strain/Indicator: L5178Y (TK+/TK-), Metabolic Activation: RAT, LIVER, S-9, AROCLOR 1254, Method: SUSPENSION/PLATE",inactive; negative. reevaluation of results: inconclusive
C[C@@H](O)[C@H]1C(=O)N2C(C(=O)O)=C([C@H]3CCCO3)S[C@H]12,mutagenic call,[4],inactive; negative
same,mutagenic call,"Test System: AMES SALMONELLA TYPHIMURIUM, Strain/Indicator: TA98, Metabolic Activation: S-9, Method: PREINCUBATION",inactive; negative
same,mutagenic call,[5],inactive; negative
same,mutagenic call,"Test System: AMES SALMONELLA TYPHIMURIUM, Strain/Indicator: TA100, Metabolic Activation: S-9, Method: PREINCUBATION",inactive; negative
same,mutagenic call,[6],inactive; negative
same,mutagenic call,"Test System: AMES SALMONELLA TYPHIMURIUM, Strain/Indicator: TA1535, Metabolic Activation: S-9, Method: PREINCUBATION",inactive; negative
same,mutagenic call,[7],inactive; negative
same,mutagenic call,"Test System: AMES SALMONELLA TYPHIMURIUM, Strain/Indicator: TA1537, Metabolic Activation: S-9, Method: PREINCUBATION",inactive; negative
same,mutagenic call,"Test System: E.COLI, Strain/Indicator: WP2 UVRA, Metabolic Activation: NONE, Method: PREINCUBATION",inactive; negative
same,mutagenic call,"Test System: E.COLI, Strain/Indicator: WP2 UVRA, Metabolic Activation: S-9, Method: PREINCUBATION",inactive; negative
O=C(O)/C(Cl)=C(\CO)C(Cl)Cl,mutagenic call,"Test System: AMES SALMONELLA TYPHIMURIUM, Strain/Indicator: TA97, Metabolic Activation: NONE, Method: STANDARD PLATE",active; positive
same,mutagenic call,"Test System: AMES SALMONELLA TYPHIMURIUM, Strain/Indicator: TA97, Metabolic Activation: RAT, LIVER, S-9, PHENOBARBITAL, Method: STANDARD PLATE",inactive; negative
same,mutagenic call,[1],inactive; negative
same,mutagenic call,"Test System: AMES SALMONELLA TYPHIMURIUM, Strain/Indicator: TA98, Metabolic Activation: RAT, LIVER, S-9, PHENOBARBITAL, Method: STANDARD PLATE",inactive; negative
same,mutagenic call,[2],active; positive
same,mutagenic call,"Test System: AMES SALMONELLA TYPHIMURIUM, Strain/Indicator: TA100, Metabolic Activation: RAT, LIVER, S-9, PHENOBARBITAL, Method: STANDARD PLATE",inactive; negative
ClC1C=Cc2cc3c4c(ccc5cccc(c54)C=3)c2=C1 (configuration not stated),mutagenic call,[4],active; positive
CN(C)CCCNc1c2ccccc2nc2c(N(CCO)CCO)ccc([N+](=O)[O-])c12,mutagenic call,[1],active; positive
same,mutagenic call,[2],active; positive
Cc1ccc(S(=O)(=O)O)cc1C,mutagenic call,"Test System: AMES SALMONELLA TYPHIMURIUM, Strain/Indicator: TA98, Metabolic Activation: HAMSTER LIVER S-9, AROCLOR 1254 (10%), Method: PREINCUBATION",inactive; negative
same,mutagenic call,"Test System: AMES SALMONELLA TYPHIMURIUM, Strain/Indicator: TA98, Metabolic Activation: HAMSTER, LIVER, S-9, AROCLOR 1254 (10%), Method: PREINCUBATION",inactive; negative
same,mutagenic call,[4],inactive; negative
same,mutagenic call,"Test System: AMES SALMONELLA TYPHIMURIUM, Strain/Indicator: TA98, Metabolic Activation: RAT LIVER S-9, AROCLOR 1254 (10%), Method: PREINCUBATION",inactive; negative
same,mutagenic call,"Test System: AMES SALMONELLA TYPHIMURIUM, Strain/Indicator: TA98, Metabolic Activation: RAT, LIVER, S-9, AROCLOR 1254 (10%), Method: PREINCUBATION",inactive; negative
same,mutagenic call,"Test System: AMES SALMONELLA TYPHIMURIUM, Strain/Indicator: TA100, Metabolic Activation: HAMSTER LIVER S-9, AROCLOR 1254 (10%), Method: PREINCUBATION",inactive; negative
same,mutagenic call,"Test System: AMES SALMONELLA TYPHIMURIUM, Strain/Indicator: TA100, Metabolic Activation: HAMSTER, LIVER, S-9, AROCLOR 1254 (10%), Method: PREINCUBATION",inactive; negative
same,mutagenic call,[5],inactive; negative
same,mutagenic call,"Test System: AMES SALMONELLA TYPHIMURIUM, Strain/Indicator: TA100, Metabolic Activation: RAT LIVER S-9, AROCLOR 1254 (10%), Method: PREINCUBATION",inactive; negative
same,mutagenic call,"Test System: AMES SALMONELLA TYPHIMURIUM, Strain/Indicator: TA100, Metabolic Activation: RAT, LIVER, S-9, AROCLOR 1254 (10%), Method: PREINCUBATION",inactive; negative
same,mutagenic call,"Test System: AMES SALMONELLA TYPHIMURIUM, Strain/Indicator: TA1535, Metabolic Activation: HAMSTER LIVER S-9, AROCLOR 1254 (10%), Method: PREINCUBATION",inactive; negative
same,mutagenic call,"Test System: AMES SALMONELLA TYPHIMURIUM, Strain/Indicator: TA1535, Metabolic Activation: HAMSTER, LIVER, S-9, AROCLOR 1254 (10%), Method: PREINCUBATION",inactive; negative
same,mutagenic call,[6],inactive; negative
same,mutagenic call,"Test System: AMES SALMONELLA TYPHIMURIUM, Strain/Indicator: TA1535, Metabolic Activation: RAT LIVER S-9, AROCLOR 1254 (10%), Method: PREINCUBATION",inactive; negative
same,mutagenic call,"Test System: AMES SALMONELLA TYPHIMURIUM, Strain/Indicator: TA1535, Metabolic Activation: RAT, LIVER, S-9, AROCLOR 1254 (10%), Method: PREINCUBATION",inactive; negative
same,mutagenic call,"Test System: AMES SALMONELLA TYPHIMURIUM, Strain/Indicator: TA1537, Metabolic Activation: HAMSTER LIVER S-9, AROCLOR 1254 (10%), Method: PREINCUBATION",inactive; negative
same,mutagenic call,"Test System: AMES SALMONELLA TYPHIMURIUM, Strain/Indicator: TA1537, Metabolic Activation: HAMSTER, LIVER, S-9, AROCLOR 1254 (10%), Method: PREINCUBATION",inactive; negative
same,mutagenic call,[7],inactive; negative
same,mutagenic call,"Test System: AMES SALMONELLA TYPHIMURIUM, Strain/Indicator: TA1537, Metabolic Activation: RAT LIVER S-9, AROCLOR 1254 (10%), Method: PREINCUBATION",inactive; negative
same,mutagenic call,"Test System: AMES SALMONELLA TYPHIMURIUM, Strain/Indicator: TA1537, Metabolic Activation: RAT, LIVER, S-9, AROCLOR 1254 (10%), Method: PREINCUBATION",inactive; negative
same,mutagenic call,[3],inactive; negative
